Measured values as given in publication PMC8156151 (The European Respiratory Journal, 2021).

Key:
Assay type in all cases: in vivo, human
IL-1ra = experiment: Plasma biomarker IL-1ra; details: for IL-1ra raw data, Mean (SD) / IL-1ra least square means % baseline±SEM: IPF patients
Description: (§1) All patients, investigators, sites and study sponsor personnel were blinded to the study group assignments throughout the study. Patients underwent study-specific assessments on days 2, 3, 7, 14 and 15, and a post-study assessment was carried out 26–30 days after the last day of the study period. Assessments included vital signs (supine blood pressure, pulse, oxygen saturation, oral temperature and respiratory rate), spirometry, 12-lead ECG, physical examination, laboratory safety screen (haematology, biochemistry, urinalysis and urinary drugs of abuse screen) and blood sampling for PK measurements. All adverse events and concomitant medications were recorded from the time of the screening visit until the post-study follow-up visit. BAL was performed at day −1 (24 h before the first dose) and at day 14 (2 h after the last dose). The BAL procedure was performed as per international guidelines. Briefly, 240 mL of 0.9% saline at room temperature was instilled in 40 mL aliquots into the right middle lobe and aspirated by suction after each aliquot.
(§2) BAL cells were separated from fluid by centrifugation, and cells were collected, stained with antibodies (supplementary material) and then fixed before analysis using a LSR Fortessa flow cytometer (Becton Dickinson, Franklin Lakes, NJ, USA). Data were analysed using FlowJo software (Tree Star, Ashland, OR, USA). Macrophages were identified as having high side scatter properties and human leukocyte antigen-DR positivity. Gal-3 expression (mean fluorescence intensity) was determined from the macrophage gate (supplementary figures S1 and S2). […] Samples were analysed by magnetic Luminex assay (R&D Systems, Minneapolis, MN, USA) or ELISA.
(§3) For part 2 of the study, placebos were combined from the three dose-specific cohorts into a pooled control group (n=9). For alveolar macrophage Gal-3 expression and the plasma biomarkers, ANCOVA was performed for percentage of baseline ((day 14/day 1)×100). The ANCOVA model included effects for treatment group and baseline (day 1) value. […] An additional analysis including dose as a continuous covariate was also performed. The Pearson correlation coefficient (r) and associated p-value were calculated for percentage of baseline and day 14 values between plasma biomarkers and alveolar macrophage Gal-3 expression. […] The analysis is exploratory and there was no pre-planned adjustment for multiple testing; the study was not powered for this. Alveolar macrophage Gal-3 expression was considered the primary exploratory analysis with the pre-selected biomarkers secondary. A Bonferroni correction for multiple testing of the secondary end-points comparing the 10 mg group with placebo gives a critical value of 0.0063. Data are presented as the difference in least square means with 95% confidence interval and p-value unless otherwise stated. All analyses were performed using SAS version 9.4 (SAS Institute, Cary, NC, USA). […]

healthy subjects = experiment: Safety and tolerability (TEAEs), part 1, single inhaled dose
Description: Subjects were discharged 24 h post-dose (day 2) provided there were no safety concerns, and returned for three outpatient visits on days 3, 8 and 14 post-dose, with a post-study follow-up between days 26 and 30. Safety and PK assessments were made at predetermined time-points.
Following completion of dosing for the final subject in each dosing cohort, an interim dose review meeting was held with a safety committee consisting of the principal investigator, medical monitor, pharmacokineticist and statistician to review the safety, tolerability and PK data (study design schematic shown in figure 1). The study statistician and pharmacokineticist were unblinded at the end of each cohort in order to conduct the analyses required for dose review decisions. The primary end-point was the safety and tolerability of single or multiple doses of TD139 in healthy subjects or IPF patients, respectively.

[1] = TD139 concentration in BAL alveolar macrophages, ELF and plasma
Description: Full plasma PK profiles were conducted on days 1 (first day of dosing) and 14 (last day of dosing). […] Standard noncompartmental methods were applied to derive PK parameters using Phoenix WinNonlin version 6.3 (Certara, Sheffield, UK). […] Drug compartment measurements in BAL alveolar macrophages and fluid were determined as described previously.

MMP-7 = experiment: Plasma biomarker MMP-7; details: for MMP-7 raw data, Mean (SD) / MMP-7 least square means % baseline±SEM: IPF patients
Description: as §1, §2, §3

CCL18 (PARC) = experiment: Plasma biomarker CCL18; details: IPF patients
Description: as §1, §2, §3

[2] = healthy subjects, single inhaled 0.15 mg
[3] = healthy subjects, single inhaled 1.5 mg
[4] = healthy subjects, single inhaled 3 mg
[5] = healthy subjects, single inhaled 10 mg
[6] = healthy subjects, single inhaled 20 mg
[7] = healthy subjects, single inhaled 50 mg

For `OC[C@H]1O[C@@H](S[C@@H]2O[C@H](CO)[C@H](O)[C@H](n3cc(-c4cccc(F)c4)nn3)[C@H]2O)[C@H](O)[C@@H](n2cc(-c3cccc(F)c3)nn2)[C@H]1O` [TD139], the “IL-1ra difference in least square means % baseline (95% CI)” value (IL-1ra; 10 mg vs placebo, ANCOVA) was 6.0 (−47.5–59.4) % baseline, the “IL-1ra raw data, Mean (SD)” value (IL-1ra; Day 14, 0.3 mg) was 548.3 (279.69) pg/ml and the “IL-1ra raw data, Mean (SD)” value (IL-1ra; Day 14, 3 mg) was 709.8 (338.05) pg/ml. The “IL-1ra raw data, Mean (SD)” value (IL-1ra; Day 14, 10 mg) was 1992.9 (2627.15) pg/ml, the “IL-1ra least square means % baseline±SEM” value (IL-1ra; day 14, 0.3 mg once daily) was 93.2±20.3 % baseline and the “IL-1ra least square means % baseline±SEM” value (IL-1ra; day 14, 3 mg once daily) was 98.7±20.2 % baseline. For the same molecule, the “IL-1ra least square means % baseline±SEM” value (IL-1ra; day 14, 10 mg once daily) was 98.0±20.8 % baseline, the “safety and tolerability” value (healthy subjects; healthy subjects, single doses up to 50 mg) was “safe and well tolerated” and the “Subjects reporting ≥1 TEAE: Serious TEAE” value (healthy subjects; [2]) was 0 n (%). For the same molecule, the “Subjects reporting ≥1 TEAE: TEAE” value (healthy subjects; [2]) was 0 n (%), the “Subjects reporting ≥1 TEAE: TEAE leading to withdrawal” value (healthy subjects; [2]) was 0 n (%) and the “Subjects with TEAE by relationship to study IMP: Almost definite” value (from here on “Subjects with TEAE … Almost definite”) (healthy subjects; [2]) was 0 n (%). The “Subjects with TEAE by relationship to study IMP: Possible” value (from here on “Subjects with TEAE … Possible”) (healthy subjects; [2]) was 0 n (%), the “Subjects with TEAE by relationship to study IMP: Probable” value (shortened to “Subjects with TEAE … Probable”) (healthy subjects; [2]) was 0 n (%) and the “Subjects with TEAE by relationship to study IMP: Unlikely” value (“Subjects with TEAE … Unlikely” below) (healthy subjects; [2]) was 0 n (%). For the same molecule, the “Subjects with TEAE by severity: Mild” value (healthy subjects; [2]) was 0 n (%), the TEAEs (healthy subjects; [2]) was 0 n and the “Subjects reporting ≥1 TEAE: Serious TEAE” value (healthy subjects; [3]) was 0 n (%). The “Subjects reporting ≥1 TEAE: TEAE” value (healthy subjects; [3]) was 0 n (%), the “Subjects reporting ≥1 TEAE: TEAE leading to withdrawal” value (healthy subjects; [3]) was 0 n (%) and the “Subjects with TEAE … Almost definite” value (healthy subjects; [3]) was 0 n (%). For the same molecule, the “Subjects with TEAE … Possible” value (healthy subjects; [3]) was 0 n (%), the “Subjects with TEAE … Probable” value (healthy subjects; [3]) was 0 n (%) and the “Subjects with TEAE … Unlikely” value (healthy subjects; [3]) was 0 n (%). The “Subjects with TEAE by severity: Mild” value (healthy subjects; [3]) was 0 n (%), the TEAEs (healthy subjects; [3]) was 0 n and the “Subjects reporting ≥1 TEAE: Serious TEAE” value (healthy subjects; [4]) was 0 n (%). The “Subjects reporting ≥1 TEAE: TEAE” value (healthy subjects; [4]) was 2 (50.0) n (%), the “Subjects reporting ≥1 TEAE: TEAE leading to withdrawal” value (healthy subjects; [4]) was 0 n (%) and the “Subjects with TEAE … Almost definite” value (healthy subjects; [4]) was 1 (25.0) n (%). The “Subjects with TEAE … Possible” value (healthy subjects; [4]) was 0 n (%), the “Subjects with TEAE … Probable” value (healthy subjects; [4]) was 0 n (%) and the “Subjects with TEAE … Unlikely” value (healthy subjects; [4]) was 1 (25.0) n (%). For the same molecule, the “Subjects with TEAE by severity: Mild” value (healthy subjects; [4]) was 2 (50.0) n (%), the TEAEs (healthy subjects; [4]) was 2 n and the “Subjects reporting ≥1 TEAE: Serious TEAE” value (healthy subjects; [5]) was 0 n (%). The “Subjects reporting ≥1 TEAE: TEAE” value (healthy subjects; [5]) was 3 (75.0) n (%), the “Subjects reporting ≥1 TEAE: TEAE leading to withdrawal” value (healthy subjects; [5]) was 0 n (%) and the “Subjects with TEAE … Almost definite” value (healthy subjects; [5]) was 3 (75.0) n (%). The “Subjects with TEAE … Possible” value (healthy subjects; [5]) was 2 (50.0) n (%), the “Subjects with TEAE … Probable” value (healthy subjects; [5]) was 0 n (%) and the “Subjects with TEAE … Unlikely” value (healthy subjects; [5]) was 0 n (%). For the same molecule, the “Subjects with TEAE by severity: Mild” value (healthy subjects; [5]) was 3 (75.0) n (%), the TEAEs (healthy subjects; [5]) was 7 n and the “Subjects reporting ≥1 TEAE: Serious TEAE” value (healthy subjects; [6]) was 0 n (%). For the same molecule, the “Subjects reporting ≥1 TEAE: TEAE” value (healthy subjects; [6]) was 4 (100.0) n (%), the “Subjects reporting ≥1 TEAE: TEAE leading to withdrawal” value (healthy subjects; [6]) was 0 n (%) and the “Subjects with TEAE … Almost definite” value (healthy subjects; [6]) was 4 (100.0) n (%). The “Subjects with TEAE … Possible” value (healthy subjects; [6]) was 1 (25.0) n (%), the “Subjects with TEAE … Probable” value (healthy subjects; [6]) was 1 (25.0) n (%) and the “Subjects with TEAE … Unlikely” value (healthy subjects; [6]) was 0 n (%). For the same molecule, the “Subjects with TEAE by severity: Mild” value (healthy subjects; [6]) was 4 (100.0) n (%), the TEAEs (healthy subjects; [6]) was 7 n and the “Subjects reporting ≥1 TEAE: Serious TEAE” value (healthy subjects; [7]) was 0 n (%). For the same molecule, the “Subjects reporting ≥1 TEAE: TEAE” value (healthy subjects; [7]) was 4 (100.0) n (%), the “Subjects reporting ≥1 TEAE: TEAE leading to withdrawal” value (healthy subjects; [7]) was 0 n (%) and the “Subjects with TEAE … Almost definite” value (healthy subjects; [7]) was 4 (100.0) n (%). The “Subjects with TEAE … Possible” value (healthy subjects; [7]) was 3 (75.0) n (%), the “Subjects with TEAE … Probable” value (healthy subjects; [7]) was 0 n (%) and the “Subjects with TEAE … Unlikely” value (healthy subjects; [7]) was 0 n (%). For the same molecule, the “Subjects with TEAE by severity: Mild” value (healthy subjects; [7]) was 4 (100.0) n (%), the TEAEs (healthy subjects; [7]) was 10 n and the “biochemistry, haematology, vital signs or 12-lead ECG data” value (healthy subjects; part 1, healthy subjects) was “no clinically significant safety findings or treatment- or dose-related changes observed”. The incidence of cough (healthy subjects; part 1, healthy subjects) was 11.1%, the “incidence of mild dysgeusia (most commonly occurring TEAE)” value (healthy subjects; part 1, healthy subjects) was 36.1% and the “correlation between concentrations of TD139 in ELF and AMs (r)” value ([1]; all active cohorts, day 14) was 0.89 (95% CI 0.70–0.96). For the same molecule, the “correlation between concentrations of TD139 in plasma (total) and AMs (r)” value ([1]; all active cohorts, day 14) was 0.89 (95% CI 0.65–0.96), the Kp at 2 h ([1]; human, inhaled, concentration of TD139 in BAL macrophages (lung) relative to systemic exposure (blood), IPF patients, 2 h post-dosing on day 14) was > 567 and the “MMP-7 difference in least square means % baseline (95% CI)” value (MMP-7; 10 mg vs placebo, ANCOVA) was −82.0 (−237.9–73.9) % baseline. The “MMP-7 raw data, Mean (SD)” value (MMP-7; Day 14, 0.3 mg) was 447.6 (205.21) pg/ml, the “MMP-7 raw data, Mean (SD)” value (MMP-7; Day 14, 3 mg) was 1849.2 (2244.12) pg/ml and the “MMP-7 raw data, Mean (SD)” value (MMP-7; Day 14, 10 mg) was 1130.6 (939.62) pg/ml. The “MMP-7 least square means % baseline±SEM” value (MMP-7; day 14, 0.3 mg once daily) was 79.3±59.2 % baseline, the “MMP-7 least square means % baseline±SEM” value (MMP-7; day 14, 3 mg once daily) was 82.3±58.4 % baseline and the “MMP-7 least square means % baseline±SEM” value (MMP-7; day 14, 10 mg once daily) was 84.4±58.7 % baseline. For the same molecule, the “CCL18 (PARC) raw data, Mean (SD)” value (CCL18 (PARC); Day 14, 0.3 mg) was 79733.8 (25166.88) pg/ml, the “CCL18 (PARC) raw data, Mean (SD)” value (CCL18 (PARC); Day 14, 3 mg) was 73022.7 (33487.12) pg/ml and the “CCL18 (PARC) raw data, Mean (SD)” value (CCL18 (PARC); Day 14, 10 mg) was 53456.8 (11339.99) pg/ml. The “CCL18 (PARC) least square means % baseline±SEM” value (CCL18 (PARC); day 14, 0.3 mg once daily) was 89.6±11.8 % baseline, the “CCL18 (PARC) least square means % baseline±SEM” value (CCL18 (PARC); day 14, 3 mg once daily) was 98.9±12.0 % baseline and the “CCL18 (PARC) least square means % baseline±SEM” value (CCL18 (PARC); day 14, 10 mg once daily) was 74.6±11.8 % baseline.
